Measured values from ChEMBL document CHEMBL4229379, “Synthesis and structure-activity relationship of novel bisindole amidines active against MDR Gram-positive and Gram-negative bacteria” (Eur J Med Chem, 2018).
Converted amounts (≈) assume the structure as drawn.

Key:
Staphylococcus aureus [1] = test: Antibacterial activity against methicillin-sensitive Staphylococcus aureus 12-28 after 18 hrs by CLSI broth microdilution method; format: functional; conditions: 12-28, 18 h
Enterococcus faecium [2] = test: Antibacterial activity against vancomycin-resistant Enterococcus faecium 12-1 after 18 hrs by CLSI broth microdilution method; format: functional; conditions: 12-1, 18 h
Klebsiella pneumoniae [3] = test: Antibacterial activity against extended-spectrum beta-lactamase deficient Klebsiella pneumoniae 12-4 after 18 hrs by CLSI broth microdilution method; format: functional; conditions: 12-4, 18 h
Proteus mirabilis = test: Antibacterial activity against Proteus mirabilis 12-6 after 18 hrs by CLSI broth microdilution method; format: functional; conditions: 12-6, 18 h
[4] = system: Stenotrophomonas maltophilia; test: Antibacterial activity against Stenotrophomonas maltophilia ATCC 13636 after 18 hrs by CLSI broth microdilution method; format: functional; conditions: ATCC 13636, 18 h
Klebsiella pneumoniae [5] = test: Antibacterial activity against extended-spectrum beta-lactamase deficient Klebsiella pneumoniae 7 after 18 hrs by CLSI broth microdilution method; format: functional; conditions: Klebsiella pneumoniae, 7, 18 h
[6] = Cytotoxicity against HEK293T cells assessed as reduction in cell viability after 48 hrs by MTS assay; format: cell-based, HEK-293T; conditions: human
[7] = system: Staphylococcus epidermidis; test: Antibacterial activity against methicillin-resistant Staphylococcus epidermidis 12-8 after 18 hrs by CLSI broth microdilution method; format: functional; conditions: 12-8, 18 h
Escherichia coli [8] = test: Antibacterial activity against extended-spectrum beta-lactamase deficient Escherichia coli ATCC 25922 after 18 hrs by CLSI broth microdilution method; format: functional; conditions: ATCC 25922, 18 h
Klebsiella pneumoniae [9] = test: Antibacterial activity against new delhi metallo-beta-lactamase-1 harboring Klebsiella pneumoniae ATCC BAA-2146 after 18 hrs by CLSI broth microdilution method; format: functional; conditions: ATCC BAA-2146, 18 h
Klebsiella pneumoniae [10] = test: Antibacterial activity against extended-spectrum beta-lactamase harboring Klebsiella pneumoniae ATCC 700603 after 18 hrs by CLSI broth microdilution method; format: functional; conditions: Klebsiella pneumoniae, 700603, 18 h
Enterobacter cloacae = test: Antibacterial activity against Enterobacter cloacae ATCC 43560 after 18 hrs by CLSI broth microdilution method; format: functional; conditions: ATCC 43560, 18 h
Providencia rettgeri = test: Antibacterial activity against Providencia rettgeri ATCC 31052 after 18 hrs by CLSI broth microdilution method; format: functional; conditions: ATCC 31052, 18 h
Enterococcus faecalis [11] = test: Antibacterial activity against vancomycin-resistant Enterococcus faecalis ATCC 51299 after 18 hrs by CLSI broth microdilution method; format: functional; conditions: ATCC 51299, 18 h
Staphylococcus aureus [12] = test: Antibacterial activity against methicillin-sensitive Staphylococcus aureus 15 after 18 hrs by CLSI broth microdilution method; format: functional; conditions: Staphylococcus aureus, 15, 18 h
Klebsiella pneumoniae [13] = test: Antibacterial activity against extended-spectrum beta-lactamase harboring Klebsiella pneumoniae 12-8 after 18 hrs by CLSI broth microdilution method; format: functional; conditions: 12-8, 18 h
Enterococcus faecalis [14] = test: Antibacterial activity against vancomycin-resistant Enterococcus faecalis 09-9 after 18 hrs by CLSI broth microdilution method; format: functional; conditions: 09-9, 18 h
[15] = system: Staphylococcus epidermidis; test: Antibacterial activity against methicillin-sensitive Staphylococcus epidermidis ATCC 12228 after 18 hrs by CLSI broth microdilution method; format: functional; conditions: ATCC 12228, 18 h
Escherichia coli [16] = test: Antibacterial activity against extended-spectrum beta-lactamase deficient Escherichia coli 1515 after 18 hrs by CLSI broth microdilution method; format: functional; conditions: Escherichia coli, 1515, 18 h
Serratia marcescens = test: Antibacterial activity against Serratia marcescens ATCC 21074 after 18 hrs by CLSI broth microdilution method; format: functional; conditions: ATCC 21074, 18 h
Staphylococcus aureus [17] = test: Antibacterial activity against methicillin-resistant Staphylococcus aureus ATCC 33591 after 18 hrs by CLSI broth microdilution method; format: functional; conditions: ATCC 33591, 18 h
Enterococcus faecium [18] = test: Antibacterial activity against vancomycin-resistant Enterococcus faecium ATCC 700221 after 18 hrs by CLSI broth microdilution method; format: functional; conditions: ATCC 700221, 18 h
Pseudomonas aeruginosa [19] = test: Antibacterial activity against Pseudomonas aeruginosa ATCC 27853 after 18 hrs by CLSI broth microdilution method; format: functional; conditions: ATCC 27853, 18 h
Enterococcus faecalis [20] = test: Antibacterial activity against vancomycin-sensitive Enterococcus faecalis ATCC 29212 after 18 hrs by CLSI broth microdilution method; format: functional; conditions: ATCC 29212, 18 h
Pseudomonas aeruginosa [21] = test: Antibacterial activity against Pseudomonas aeruginosa 12-16 after 18 hrs by CLSI broth microdilution method; format: functional; conditions: 12-16, 18 h
Escherichia coli [22] = test: Antibacterial activity against extended-spectrum beta-lactamase deficient Escherichia coli 12-14 after 18 hrs by CLSI broth microdilution method; format: functional; conditions: 12-14, 18 h
Staphylococcus aureus [23] = test: Antibacterial activity against methicillin-resistant Staphylococcus aureus 12-33 after 18 hrs by CLSI broth microdilution method; format: functional; conditions: 12-33, 18 h
[24] = system: Acinetobacter calcoaceticus; test: Antibacterial activity against Acinetobacter calcoaceticus ATCC 19606 after 18 hrs by CLSI broth microdilution method; format: functional; conditions: ATCC 19606, 18 h
Enterococcus faecalis [25] = test: Antibacterial activity against vancomycin-sensitive Enterococcus faecalis 12-5 after 18 hrs by CLSI broth microdilution method; format: functional; conditions: 12-5, 18 h
Citrobacter freundii = test: Antibacterial activity against Citrobacter freundii ATCC 43864 after 18 hrs by CLSI broth microdilution method; format: functional; conditions: ATCC 43864, 18 h
Enterococcus faecium [26] = test: Antibacterial activity against vancomycin-sensitive Enterococcus faecium 12-3 after 18 hrs by CLSI broth microdilution method; format: functional; conditions: 12-3, 18 h
Escherichia coli [27] = test: Antibacterial activity against extended-spectrum beta-lactamase harboring Escherichia coli 12-15 after 18 hrs by CLSI broth microdilution method; format: functional; conditions: 12-15, 18 h
Proteus vulgaris = test: Antibacterial activity against Proteus vulgaris ATCC 29905 after 18 hrs by CLSI broth microdilution method; format: functional; conditions: ATCC 29905, 18 h
Klebsiella aerogenes = test: Antibacterial activity against Enterobacter aerogenes ATCC 13048 after 18 hrs by CLSI broth microdilution method; format: functional; conditions: ATCC 13048, 18 h
[28] = system: Staphylococcus epidermidis; test: Antibacterial activity against methicillin-sensitive Staphylococcus epidermidis 12-6 after 18 hrs by CLSI broth microdilution method; format: functional; conditions: 12-6, 18 h
Staphylococcus aureus [29] = test: Antibacterial activity against methicillin-sensitive Staphylococcus aureus ATCC 29213 after 18 hrs by CLSI broth microdilution method; format: functional; conditions: ATCC 29213, 18 h
Pseudomonas aeruginosa [30] = test: Antibacterial activity against Pseudomonas aeruginosa PAO1 after 18 hrs by CLSI broth microdilution method; format: functional; conditions: PAO1, 18 h

In the case of `c1cc2cc(-c3ccc(-c4cc5ccc(C6=NCCCN6)cc5[nH]4)cc3)[nH]c2cc1C1=NCCCN1`, the MIC (Staphylococcus aureus [1]) is reported as 0.25 µg/mL (≈ 0.529 µM), the MIC (Enterococcus faecium [2]) is reported as 0.25 µg/mL (≈ 0.529 µM) and the MIC (Klebsiella pneumoniae [3]) is reported as 8 µg/mL (≈ 16.9 µM). It also gave an MIC (Proteus mirabilis) of 128 µg/mL (≈ 271 µM), an MIC [4] of 4 µg/mL (≈ 8.46 µM) and an MIC (Klebsiella pneumoniae [5]) of 8 µg/mL (≈ 16.9 µM). It also gave a CC50 at 48 h [6] of 4.33 µg/mL (≈ 9.16 µM), an MIC [7] of 0.25 µg/mL (≈ 0.529 µM) and an MIC (Escherichia coli [8]) of 4 µg/mL (≈ 8.46 µM). It also gave an MIC (Klebsiella pneumoniae [9]) of 16 µg/mL (≈ 33.9 µM), an MIC (Klebsiella pneumoniae [10]) of 32 µg/mL (≈ 67.7 µM) and an MIC (Enterobacter cloacae) of 8 µg/mL (≈ 16.9 µM). The MIC (Providencia rettgeri) was 8 µg/mL (≈ 16.9 µM), the MIC (Enterococcus faecalis [11]) was 0.5 µg/mL (≈ 1.06 µM) and the MIC (Staphylococcus aureus [12]) was 0.25 µg/mL (≈ 0.529 µM). The MIC (Klebsiella pneumoniae [13]) was 8 µg/mL (≈ 16.9 µM), the MIC (Enterococcus faecalis [14]) was 0.5 µg/mL (≈ 1.06 µM) and the MIC [15] was 0.25 µg/mL (≈ 0.529 µM). It also gave an MIC (Escherichia coli [16]) of 8 µg/mL (≈ 16.9 µM), an MIC (Serratia marcescens) of 16 µg/mL (≈ 33.9 µM) and an MIC (Staphylococcus aureus [17]) of 0.25 µg/mL (≈ 0.529 µM). The MIC (Enterococcus faecium [18]) was 0.25 µg/mL (≈ 0.529 µM), the MIC (Pseudomonas aeruginosa [19]) was 4 µg/mL (≈ 8.46 µM) and the MIC (Enterococcus faecalis [20]) was 0.5 µg/mL (≈ 1.06 µM). It also gave an MIC (Pseudomonas aeruginosa [21]) of 16 µg/mL (≈ 33.9 µM), an MIC (Escherichia coli [22]) of 4 µg/mL (≈ 8.46 µM) and an MIC (Staphylococcus aureus [23]) of 0.25 µg/mL (≈ 0.529 µM). It also gave an MIC [24] of 64 µg/mL (≈ 135 µM), an MIC (Enterococcus faecalis [25]) of 0.5 µg/mL (≈ 1.06 µM) and an MIC (Citrobacter freundii) of 4 µg/mL (≈ 8.46 µM). It also gave an MIC (Enterococcus faecium [26]) of 1 µg/mL (≈ 2.12 µM), an MIC (Escherichia coli [27]) of 8 µg/mL (≈ 16.9 µM) and an MIC (Proteus vulgaris) of 16 µg/mL (≈ 33.9 µM). For the same compound, the MIC (Klebsiella aerogenes) was 8 µg/mL (≈ 16.9 µM), the MIC [28] was 0.25 µg/mL (≈ 0.529 µM) and the MIC (Staphylococcus aureus [29]) was 0.25 µg/mL (≈ 0.529 µM). The MIC (Pseudomonas aeruginosa [30]) was 4 µg/mL (≈ 8.46 µM).
